Reference: ChEMBL document CHEMBL5518164, “Membrane-permeable tenofovir-di- and monophosphate analogues” (Eur J Med Chem, 2024)
Active and inactive are the calls of the source. The rule behind the calls is not given here.

Tests used:
[1] = system: Human immunodeficiency virus 2; assay: Antiviral activity against HIV-2 ROD infected in thymidine kinase deficient human CEM cells assessed as inhibition of virus-induced giant cell formation incubated for 4 to 5 days by light microscopy; assay type: functional, organism-based; conditions: Human immunodeficiency virus 2, ROD, CCRF-CEM
[2] = Drug metabolism in phosphate buffer saline assessed as Tenofovir diphosphate formation in presence of pig liver esterase at pH 7.3 by RP18-HPLC analysis; assay type: ADME, Sus scrofa; conditions: isolated protein
[3] = Half life of the compound in citrate-containing human plasma by HPLC analysis; assay type: ADME, cell-free
[4] = Half life of the compound in phosphate buffer saline in presence of pig liver esterase at pH 7.3 by RP18-HPLC analysis; assay type: ADME, Sus scrofa
[5] = Drug hydrolysis in phosphate buffer saline incubated for 100 hrs in presence of pig liver esterase at pH 7.3 by RP18-HPLC analysis; assay type: ADME, Sus scrofa; conditions: read-out: Drug degradation
[6] = Drug metabolism in phosphate buffer saline assessed as gamma-monoalkylated metabolite formation in presence of pig liver esterase at pH 7.3 by RP18-HPLC analysis; assay type: ADME, Sus scrofa; conditions: isolated protein
[7] = Selectivity index, ratio of CC50 for cytotoxicity against human CEM cells to EC50 for antiviral activity against HIV-2 ROD infected in thymidine kinase deficient human CEM cells; assay type: toxicity, cell-based; conditions: read-out: Ratio CC50/EC50
[8] = Drug metabolism in human CEM/0 cell extracts assessed as Tenofovir monophosphate formation by RP18-HPLC analysis; assay type: ADME; conditions: ccrf-cem
[9] = Half life of the compound in heparin-stabilized human plasma by HPLC analysis; assay type: ADME, cell-free
[10] = system: Human immunodeficiency virus 2; assay: Antiviral activity against HIV-2 ROD infected in wild type human CEM/0 cells assessed as inhibition of virus-induced giant cell formation incubated for 4 to 5 days by light microscopy; assay type: functional, organism-based; conditions: Human immunodeficiency virus 2, ROD, CCRF-CEM
[11] = Half life of the compound in phosphate buffer saline at pH 7.3 by RP18-HPLC analysis; assay type: ADME
[12] = Lipophilicity of the compound assessed as retention time by RP-HPLC analysis; assay type: physicochemical
[13] = molecular target: T1, DNA polymerase subunit gamma-1 (Homo sapiens) (UniProt P54098); assay: Substrate activity at human DNA polymerase gamma assessed as n+1 band formation incubated for 120 mins in presence of primer/template mixture and dNTPs by primer extension assay based fluorescence analysis
T1 sequence (whole entry): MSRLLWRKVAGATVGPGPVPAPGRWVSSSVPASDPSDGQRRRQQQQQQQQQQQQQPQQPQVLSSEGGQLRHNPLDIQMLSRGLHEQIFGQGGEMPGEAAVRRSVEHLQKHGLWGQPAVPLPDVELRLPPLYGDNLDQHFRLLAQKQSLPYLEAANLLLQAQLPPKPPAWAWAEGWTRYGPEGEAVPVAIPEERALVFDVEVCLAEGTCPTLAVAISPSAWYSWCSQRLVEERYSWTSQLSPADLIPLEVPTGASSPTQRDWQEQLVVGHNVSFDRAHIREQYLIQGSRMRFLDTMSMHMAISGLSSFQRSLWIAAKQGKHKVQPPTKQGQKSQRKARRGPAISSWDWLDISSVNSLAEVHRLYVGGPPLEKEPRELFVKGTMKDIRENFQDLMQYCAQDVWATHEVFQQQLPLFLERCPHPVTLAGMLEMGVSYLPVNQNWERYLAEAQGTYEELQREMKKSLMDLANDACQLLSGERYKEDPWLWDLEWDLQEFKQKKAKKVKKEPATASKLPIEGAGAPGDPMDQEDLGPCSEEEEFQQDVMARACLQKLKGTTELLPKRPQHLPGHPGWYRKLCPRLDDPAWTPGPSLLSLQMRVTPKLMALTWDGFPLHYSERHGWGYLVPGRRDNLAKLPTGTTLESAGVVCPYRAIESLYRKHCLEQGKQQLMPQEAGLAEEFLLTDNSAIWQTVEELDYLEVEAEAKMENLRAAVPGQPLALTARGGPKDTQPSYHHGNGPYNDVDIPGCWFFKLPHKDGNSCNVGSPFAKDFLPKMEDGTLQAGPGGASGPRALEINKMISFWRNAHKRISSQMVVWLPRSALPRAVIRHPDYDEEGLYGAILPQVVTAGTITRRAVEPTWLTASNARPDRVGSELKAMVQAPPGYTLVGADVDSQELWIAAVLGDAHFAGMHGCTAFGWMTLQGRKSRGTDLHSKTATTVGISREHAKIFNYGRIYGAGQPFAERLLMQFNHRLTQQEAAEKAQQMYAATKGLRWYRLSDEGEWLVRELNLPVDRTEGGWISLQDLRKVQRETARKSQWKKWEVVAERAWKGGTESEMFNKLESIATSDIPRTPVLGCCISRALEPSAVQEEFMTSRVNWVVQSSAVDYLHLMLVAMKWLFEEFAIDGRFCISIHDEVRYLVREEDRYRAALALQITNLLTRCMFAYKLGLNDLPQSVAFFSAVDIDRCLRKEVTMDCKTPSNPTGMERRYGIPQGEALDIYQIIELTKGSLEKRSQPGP

[14] = Drug metabolism in human CEM/0 cell extracts assessed as gamma-monoalkylated metabolite formation by RP18-HPLC analysis; assay type: ADME; conditions: ccrf-cem
[15] = Drug hydrolysis in phosphate buffer saline incubated for 600 hrs at pH 7.3 by RP18-HPLC analysis; assay type: physicochemical; conditions: read-out: Drug degradation
[16] = Drug hydrolysis in phosphate buffer saline incubated for 500 hrs at pH 7.3 by RP18-HPLC analysis; assay type: physicochemical; conditions: read-out: Drug degradation
[17] = Drug metabolism in human CEM/0 cell extracts assessed as Tenofovir diphosphate formation by RP18-HPLC analysis; assay type: ADME; conditions: ccrf-cem
[18] = Drug metabolism in phosphate buffer saline assessed as (R)-9-(2-(phosphonomethoxy)propyl)adenine formation in presence of pig liver esterase at pH 7.3 by RP18-HPLC analysis; assay type: ADME, Sus scrofa; conditions: isolated protein
[19] = system: Human immunodeficiency virus 2; assay: Potency index, ratio of Tenofovir EC50 to test compound EC50 for antiviral activity against HIV-2 ROD infected in wild type human CEM/0 cells; assay type: functional
[20] = system: Human immunodeficiency virus 1; assay: Potency index, ratio of Tenofovir EC50 to test compound EC50 for antiviral activity against HIV-1 HE infected in wild type human CEM/0 cells; assay type: functional
[21] = Drug metabolism in human CEM/0 cell extracts assessed as (R)-9-(2-(phosphonomethoxy)propyl)adenine formation by RP18-HPLC analysis; assay type: ADME; conditions: ccrf-cem
[22] = system: Human immunodeficiency virus 2; assay: Potency index, ratio of Tenofovir EC50 to test compound EC50 for antiviral activity against HIV-2 ROD infected in thymidine kinase deficient human CEM cells; assay type: functional

Structure (SMILES) | EC50 [1] [nM] | Drug metabolism [2] | half-life [3] [h] | half-life [4] [h] | metabolised at 100 h [5] [%] | Drug metabolism [6] | selectivity ratio [7] | Drug metabolism [8] | half-life [9] [h] | EC50 [10] [nM] | half-life [11] [h] | Retention_time [12] [min] | Activity [13] | further results
CCCCCCCCCCCCCCCCCCOP(=O)(OCCCC)OP(=O)(O)OP(=O)(O)CO[C@H](C)Cn1cnc2c(N)ncnc21 (some centres undefined) | 12 | Metabolite_Notdetected | > 8 | > 100 | 31 | Metabolite_Notdetected | 3690 | Metabolite_Detected | > 8 | 19 | 257 | 15.5 | inactive | 
CCCCCCCCCCCCCCCCCCP(=O)(OCCCC)OP(=O)(O)OP(=O)(O)CO[C@H](C)Cn1cnc2c(N)ncnc21 (some centres undefined) | 33 | Metabolite_Notdetected | > 8 | > 100 | 16 | Metabolite_Notdetected | 1350 | Metabolite_Detected | > 8 | 62 | > 500 | 15.2 | inactive | Drug metabolism [14]: Metabolite_Notdetected; degraded at 600 h [15]: 45%; degraded at 500 h [16]: 40%; Drug metabolism [17]: Metabolite_Notdetected
CCCCCCCCCCCCCCCCCCP(=O)(OCCCC)OP(=O)(O)CO[C@H](C)Cn1cnc2c(N)ncnc21 (some centres undefined) | 2 |  | > 5 | 24 |  |  | 14000 |  | > 5 | 3 | 27 | 18.1 | inactive | Drug metabolism [18]: Metabolite_Detected; Ratio EC50 [19]: 567; Ratio EC50 [20]: 59; Drug metabolism [21]: Metabolite_Detected; Ratio EC50 [22]: 326
